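Cultured in 96-well plates, cells were exposed to test compound for 48 hours across five concentrations. TGI: total growth inhibition.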
Tests used:
Assay in all cases: growth of human tumour cells (NCI), 48 h
HT29 colon = system: HT29 colon
DU-145 prostate = system: DU-145 prostate
KM12 colon = system: KM12 colon
TK-10 renal = system: TK-10 renal
CAKI-1 renal = system: CAKI-1 renal
NCI-H23 lung = system: NCI-H23 lung
OVCAR-3 ovarian = system: OVCAR-3 ovarian
UACC-257 melanoma = system: UACC-257 melanoma
RPMI-8226 leukemia = system: RPMI-8226 leukemia
MALME-3M melanoma = system: MALME-3M melanoma

COc1ccc(C2c3cc4c(cc3OC(N3CCCCC3)C2C)OCO4)cc1 (stereo not given)
TGI (HT29 colon): > 100 µM | TGI (DU-145 prostate): > 100 µM | TGI (KM12 colon): > 100 µM | TGI (TK-10 renal): > 100 µM | TGI (CAKI-1 renal): 84.9 µM | TGI (NCI-H23 lung): > 100 µM | TGI (OVCAR-3 ovarian): > 100 µM | TGI (UACC-257 melanoma): > 100 µM | TGI (RPMI-8226 leukemia): > 100 µM

CCOc1cc(C2SCC(=O)N2c2nc3cc4sc(N5C(=O)CSC5c5ccc(O)c(OCC)c5)nc4cc3s2)ccc1O (stereo not given)
TGI (HT29 colon): > 100 µM | TGI (DU-145 prostate): > 100 µM | TGI (KM12 colon): > 100 µM | TGI (MALME-3M melanoma): > 100 µM | TGI (TK-10 renal): > 100 µM | TGI (CAKI-1 renal): > 100 µM | TGI (NCI-H23 lung): > 100 µM | TGI (OVCAR-3 ovarian): > 100 µM | TGI (UACC-257 melanoma): > 58.5 µM | TGI (RPMI-8226 leukemia): > 100 µM

c1ccc(C2=C(c3ccccc3)P(c3ccccc3)C2)cc1 (stereo not given)
TGI (HT29 colon): > 100 µM | TGI (DU-145 prostate): > 100 µM | TGI (KM12 colon): > 100 µM | TGI (MALME-3M melanoma): > 100 µM | TGI (TK-10 renal): > 100 µM | TGI (CAKI-1 renal): > 100 µM | TGI (OVCAR-3 ovarian): > 100 µM | TGI (UACC-257 melanoma): > 100 µM

O=[N+]([O-])c1ccc(Cl)cc1C=NC12CC3CC(CC(C3)C1)C2
TGI (HT29 colon): > 79.9 µM | TGI (DU-145 prostate): > 100 µM | TGI (KM12 colon): > 91 µM | TGI (MALME-3M melanoma): > 94 µM | TGI (TK-10 renal): > 100 µM | TGI (CAKI-1 renal): > 100 µM | TGI (NCI-H23 lung): 98.1 µM | TGI (OVCAR-3 ovarian): > 100 µM | TGI (UACC-257 melanoma): > 31.6 µM | TGI (RPMI-8226 leukemia): 57.5 µM

COc1ccc2c(c1)CC[C@@H]1[C@@H]2CC[C@]2(C)C(=O)/C(=C/c3cc(OC)c(OC)c(OC)c3)C[C@@H]12
TGI (DU-145 prostate): > 100 µM | TGI (KM12 colon): 82.9 µM | TGI (MALME-3M melanoma): 35 µM | TGI (TK-10 renal): 34.2 µM | TGI (CAKI-1 renal): 63.3 µM | TGI (NCI-H23 lung): 53.3 µM | TGI (OVCAR-3 ovarian): 33.7 µM | TGI (RPMI-8226 leukemia): > 100 µM

N#Cc1c(N2CCN(c3ccc([N+](=O)[O-])cc3)CC2)[n+](=O)c2ccc(Cl)cc2n1[O-]
TGI (HT29 colon): 7.31 µM | TGI (DU-145 prostate): 6.7 µM | TGI (KM12 colon): 13.3 µM | TGI (MALME-3M melanoma): 6.31 µM | TGI (TK-10 renal): 8.86 µM | TGI (CAKI-1 renal): 2.7 µM | TGI (NCI-H23 lung): 3.96 µM | TGI (UACC-257 melanoma): 8.21 µM

O=C1/C(=C/c2ccco2)NC(=S)N1CN1CCOCC1
TGI (HT29 colon): > 100 µM | TGI (DU-145 prostate): > 100 µM | TGI (KM12 colon): > 100 µM | TGI (TK-10 renal): > 100 µM | TGI (NCI-H23 lung): > 100 µM | TGI (OVCAR-3 ovarian): > 100 µM | TGI (UACC-257 melanoma): > 100 µM | TGI (RPMI-8226 leukemia): > 100 µM

CCS(=O)(=O)c1c2cc(OC)ccc2nc2ccc(OC)cc12
TGI (HT29 colon): > 100 µM | TGI (DU-145 prostate): > 100 µM | TGI (KM12 colon): > 100 µM | TGI (MALME-3M melanoma): > 100 µM | TGI (TK-10 renal): > 100 µM | TGI (CAKI-1 renal): > 100 µM | TGI (NCI-H23 lung): > 100 µM | TGI (OVCAR-3 ovarian): > 100 µM | TGI (UACC-257 melanoma): > 100 µM

COc1cc(/C=C/C(=O)OC[C@H](Br)[C@H](OC(C)=O)c2ccc3c(c2)OCO3)cc(OC)c1OC
TGI (HT29 colon): > 100 µM | TGI (DU-145 prostate): > 100 µM | TGI (KM12 colon): > 100 µM | TGI (MALME-3M melanoma): > 100 µM | TGI (TK-10 renal): > 100 µM | TGI (CAKI-1 renal): > 100 µM | TGI (NCI-H23 lung): > 100 µM | TGI (OVCAR-3 ovarian): > 100 µM | TGI (UACC-257 melanoma): > 100 µM | TGI (RPMI-8226 leukemia): > 100 µM

O=C(O)/C=C/C(=O)O
TGI (HT29 colon): > 100 µM | TGI (DU-145 prostate): > 100 µM | TGI (KM12 colon): > 100 µM | TGI (MALME-3M melanoma): > 100 µM | TGI (TK-10 renal): > 100 µM | TGI (CAKI-1 renal): > 100 µM | TGI (NCI-H23 lung): > 100 µM | TGI (OVCAR-3 ovarian): > 100 µM | TGI (UACC-257 melanoma): > 100 µM | TGI (RPMI-8226 leukemia): > 100 µM

C/C=C\C(CC(=O)NCCC1CN(C(=O)c2ccccc2)c2ccccc21)CC(=O)OC (stereo not given)
TGI (HT29 colon): > 100 µM | TGI (DU-145 prostate): > 100 µM | TGI (KM12 colon): > 100 µM | TGI (MALME-3M melanoma): > 100 µM | TGI (TK-10 renal): > 100 µM | TGI (CAKI-1 renal): > 100 µM | TGI (NCI-H23 lung): > 100 µM | TGI (OVCAR-3 ovarian): > 100 µM | TGI (UACC-257 melanoma): > 100 µM | TGI (RPMI-8226 leukemia): > 100 µM

Source: PubChem BioAssay (NCI)
